This passage reports IC50 results from patent publication US20100292266A1, “Oxazolyl Piperidine Modulators of Fatty Acid Amide Hydrolase” (priority 2006, published 2010).

The term IC50 denotes the concentration that gives 50% inhibition. A higher IC50 goes with a need for much substance.

Structures are written as SMILES.

In the first assay the target is T1, Rat FAAH (Rattus norvegicus, UniProt P97612).
T1 construct: expressed in transfected cells
T1 sequence (P97612 1-579): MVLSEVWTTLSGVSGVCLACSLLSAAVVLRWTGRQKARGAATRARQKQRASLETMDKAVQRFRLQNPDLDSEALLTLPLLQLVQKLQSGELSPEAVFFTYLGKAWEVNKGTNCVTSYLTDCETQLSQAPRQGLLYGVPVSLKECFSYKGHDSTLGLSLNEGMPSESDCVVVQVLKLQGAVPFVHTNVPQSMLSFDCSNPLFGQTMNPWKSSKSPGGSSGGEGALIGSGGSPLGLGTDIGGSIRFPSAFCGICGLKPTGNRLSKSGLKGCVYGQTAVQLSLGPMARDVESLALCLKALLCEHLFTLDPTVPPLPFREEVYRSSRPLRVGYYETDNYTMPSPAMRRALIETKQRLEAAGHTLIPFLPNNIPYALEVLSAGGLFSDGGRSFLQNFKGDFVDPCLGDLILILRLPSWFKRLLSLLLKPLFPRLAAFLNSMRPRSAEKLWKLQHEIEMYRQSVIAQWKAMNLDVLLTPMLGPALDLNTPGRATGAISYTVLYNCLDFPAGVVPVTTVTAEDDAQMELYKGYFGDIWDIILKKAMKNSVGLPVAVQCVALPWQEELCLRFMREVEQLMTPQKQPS
Briefly: Assay Method 2: FAAH assay, 3H-anandamide hydrolysis in cell homogenate. In kind it is biochemical. The note with it: transfected SK-N-MC cell homogenate, 80 nM 3H-AEA, 1 h rt, > = solubility limit or highest concentration tested. The protocol: A. Transfection of Cells with Rat FAAH
(§1) A 10-cm tissue culture dish with a confluent monolayer of SK-N-MC cells was split 2 days (d) prior to transfection. Using sterile technique, the media was removed and the cells were detached from the dish by the addition of trypsin. One fifth of the cells were then placed onto a new 10-cm dish. Cells were grown in a 37° C. incubator with 5% CO2 in Minimal Essential Media Eagle with 10% Fetal Bovine Serum. After 2 d, cells were approximately 80% confluent. These cells were removed from the dish with trypsin and pelleted in a clinical centrifuge. The pellet was re-suspended in 400 μL complete media and transferred to an electroporation cuvette with a 0.4 cm gap between the electrodes. Supercoiled rat FAAH cDNA (1 μg) was added to the cells and mixed. The voltage for the electroporation was set at 0.25 kV, and the capacitance was set at 960 μF. After electroporation, the cells were diluted into complete media (10 mL) and plated onto four 10-cm dishes. Because of the variability in the efficiency of electroporation, four different concentrations of cells were plated. The ratios used were 1:20, 1:10, and 1:5, with the remainder of the cells being added to the fourth dish. The cells were allowed to recover for 24 h before adding the selection media (complete media with 600 μg/mL G418). After 10 d, dishes were analyzed for surviving colonies of cells. Dishes with well-isolated colonies were used. Cells from individual colonies were isolated and tested.
(§2) The assay mixture consisted of 50 μL of the cell homogenate, 10 μL of the test compound, and 40 μL of anandamide [1-^3H-ethanolamine] (^3H-AEA, Perkin-Elmer, 10.3 Ci/mmol), which was added last, for a final tracer concentration of 80 nM. The reaction mixture was incubated at it for 1 h. During the incubation, 96-well Multiscreen filter plates (catalog number MAFCNOB50; Millipore, Bedford, Mass., USA) were loaded with 25 μL of activated charcoal (Multiscreen column loader, catalog number MACL09625, Millipore) and washed once with 100 μL of MeOH. Also during the incubation, 96-well DYNEX MicroLite plates (catalog number NL510410) were loaded with 100 μL of MicroScint40 (catalog number 6013641, Packard Bioscience, Meriden, Conn., USA). After the 1 h incubation, 60 μL of the reaction mixture were transferred to the charcoal plates, which were then assembled on top of the DYNEX plates using Centrifuge Alignment Frames (catalog number MACF09604, Millipore). The unbound labeled ethanolamine . was centrifuged through to the bottom plate (5 min at 2000 rpm), which was preloaded with the scintillant, as described above. The plates were sealed and left at rt for 1 h before counting on a Hewlett Packard TopCount.
(§3) Where activity is shown as greater than (>) a particular value, the value is the solubility limit of the compound in the assay medium or the highest concentration tested in the assay.
Regarding `O=C(c1ncco1)C1CCN(Cc2cc3ccccc3s2)CC1` [Example 54, (1-Benzo[b]thoiphen-2-ylmethyl-piperidin-4-yl)-oxazol-2-yl-methanone], the IC50 came to 9 nM.

Regarding `Cc1ccc2nc(Cl)c(CN3CCC(C(=O)c4ncco4)CC3)cc2c1` [Example 74, [1-(2-Chloro-6-methyl-quinolin-3-ylmethyl)-piperidin-4-yl]-oxazol-2-yl-methanone], the concentration for half-maximal inhibition (IC50) came to 87 nM.

Compound `O=C(c1ncco1)C1CCN(Cc2ccc(C(F)(F)F)cc2)CC1` [Example 19] gave an IC50 of 15 nM.

In turn, `O=C(c1ncco1)C1CCN(Cc2ccc(Br)c([N+](=O)[O-])c2)CC1` [Example 26, [1-(4-Bromo-3-nitro-benzyl)-piperidin-4-yl]-oxazol-2-yl-methanone] yielded an IC50 of 9 nM.

In turn, `O=C(c1ncco1)C1CCN(Cc2cccc(OC(F)(F)F)c2)CC1` [Example 37, Oxazol-2-yl-[1-(3-trifluoromethoxy-benzyl)-piperidin-4-yl]-methanone] registered a half-inhibitory concentration (IC50) of 40 nM.

In the case of `Cn1c(CN2CCC(C(=O)c3ncco3)CC2)nc2ccccc21` [Example 49, [1-(1-Methyl-1H-benzoimidazol-2-ylmethyl)-piperidin-4-yl]-oxazol-2-yl-methanone], the IC50 was determined as 91 nM.

Turning to `Cn1ccc2cc(CN3CCC(C(=O)c4ncco4)CC3)ccc21` [Example 39, [1-(1-Methyl-1H-indol-5-ylmethyl)-piperidin-4-yl]-oxazot-2-yl-methanone], half-maximal inhibition (IC50) was put at 2000 nM.

With `CCOc1cccc(CN2CCC(C(=O)c3ncco3)CC2)c1` [Example 29, [1-(3-Ethoxy-benzyl)-piperidin-4-yl]-oxazol-2-yl-methanone], the IC50 amounted to 1400 nM.

`COc1ccc2cc(CN3CCC(C(=O)c4ncco4)CC3)c(Cl)nc2c1` [Example 68, [1-(2-Chloro-7-methoxy-quinolin-3-ylmethyl)-piperidin-4-yl]-oxazol-2-yl-methanone] returned an IC50 of 511 nM.

Take `O=C(c1ncco1)C1CCN(Cc2cc3ccc(Cl)cc3nc2Cl)CC1` [Example 70, [1-(2,7-Dichloro-quinolin-3-ylmethyl)-piperidin-4-yl]-oxazol-2-yl-methanone]: half-maximal inhibition (IC50) required 290 nM.

With `O=C(c1ncco1)C1CCN(Cc2ccc(Br)cc2)CC1` [Example 51, [1-(4-Bromo-benzyl)-piperidin-4-yl]-oxazol-2-yl-methanone], the IC50 stood at 33 nM.

`COc1ccc2cc(CN3CCC(C(=O)c4ncco4)CC3)ccc2c1` [Example 46, [1-(6-Methoxy-naphthalen-2-ylmethyl)-piperidin-4-yl]-oxazol-2-yl-methanone]: the IC50 amounted to 219 nM.

For `O=C(c1ncco1)C1CCN(Cc2ccccc2Br)CC1` [Example 53, [1-(2-Bromo-benzyl)-piperidin-4-yl]-oxazol-2-yl-methanone], inhibition was half-maximal at 320 nM (IC50).

In turn, `O=C(c1ncco1)C1CCN(Cc2ccc3cc(Cl)ccc3n2)CC1` [Example 77, [1-(6-Chloro-quinolin-2-ylmethyl)-piperidin-4-yl]-oxazol-2-yl-methanone] came in with an IC50 of 22 nM.

Compound `O=C(c1ncco1)C1CCN(Cc2cccc(OC3CCCCC3)c2)CC1` [Example 22, [1-(3-Cyclohexyloxy-benzyl)-piperidin-4-yl]-oxazol-2-yl-methanone] registered an IC50 of 790 nM.

With `O=C(c1ncco1)C1CCN(S(=O)(=O)c2ccc(Cl)cc2)CC1` [Example 4, [1-(4-Chloro-benzenesulfonyl)-piperidin-4-yl]-oxazol-2-yl-methanone], the midpoint of inhibition, the IC50, lay at 8000 nM.

`O=C(c1ncco1)C1CCN(Cc2ccc3ccccc3c2O)CC1` [Example 47, [1-(1-Hydroxy-naphthalen-2-ylmethyl)-piperidin-4-yl]-oxazol-2-yl-methanone] showed an IC50 of 7 nM.

Consider `O=C(c1ncco1)C1CCN(Cc2ccccc2Cl)CC1` [Example 33, [1-(2-Chloro-benzyl)-piperidin-4-yl]-oxazol-2-yl-methanone], for which half-maximal inhibition (IC50) required 890 nM.

For a further assay, the target named is T2, FAAH (Homo sapiens, UniProt O00519).
T2 sequence (O00519 1-579): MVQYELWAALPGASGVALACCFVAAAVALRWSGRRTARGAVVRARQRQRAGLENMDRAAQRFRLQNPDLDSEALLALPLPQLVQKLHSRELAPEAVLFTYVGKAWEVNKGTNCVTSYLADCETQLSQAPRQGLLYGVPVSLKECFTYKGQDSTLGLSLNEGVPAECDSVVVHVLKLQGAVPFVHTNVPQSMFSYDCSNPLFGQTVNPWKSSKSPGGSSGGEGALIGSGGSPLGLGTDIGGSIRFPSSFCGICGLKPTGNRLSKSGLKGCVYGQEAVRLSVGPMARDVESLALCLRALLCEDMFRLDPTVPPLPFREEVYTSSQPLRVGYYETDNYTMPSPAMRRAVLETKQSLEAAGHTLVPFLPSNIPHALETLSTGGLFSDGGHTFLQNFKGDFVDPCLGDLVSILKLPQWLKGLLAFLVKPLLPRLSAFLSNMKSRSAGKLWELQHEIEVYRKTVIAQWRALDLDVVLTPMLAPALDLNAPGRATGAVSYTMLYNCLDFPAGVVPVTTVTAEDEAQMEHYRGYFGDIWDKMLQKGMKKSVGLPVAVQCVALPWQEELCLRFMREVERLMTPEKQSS
Kind of assay: Assay Method 1: FAAH assay, 3H-anandamide hydrolysis in cell homogenate. The format is biochemical. On the set-up: expressed in transfected cells. The note with it: T84 or transfected SK-N-MC cell homogenate, 80 nM 3H-AEA, 1 h rt, > = solubility limit or highest concentration tested. The protocol: A. Transfection of Cells with Human FAAH
as §1, with “Supercoiled human” for “Supercoiled rat”
as §2, with “at rt” for “at it”, “ethanolamine” for “ethanolamine .”
as §3
Regarding `O=C(c1ncco1)C1CCN(Cc2cc3ccccc3s2)CC1` [Example 54, (1-Benzo[b]thoiphen-2-ylmethyl-piperidin-4-yl)-oxazol-2-yl-methanone], the 50% inhibitory concentration (IC50) was 2 nM.

The compound `Cc1ccc2nc(Cl)c(CN3CCC(C(=O)c4ncco4)CC3)cc2c1` [Example 74, [1-(2-Chloro-6-methyl-quinolin-3-ylmethyl)-piperidin-4-yl]-oxazol-2-yl-methanone] displayed an IC50 of 17 nM.

Regarding `O=C(c1ncco1)C1CCN(Cc2ccc(C(F)(F)F)cc2)CC1` [Example 19], the IC50 is 10 nM.

For `O=C(c1ncco1)C1CCN(Cc2ccc(Br)c([N+](=O)[O-])c2)CC1` [Example 26, [1-(4-Bromo-3-nitro-benzyl)-piperidin-4-yl]-oxazol-2-yl-methanone], the half-inhibitory concentration (IC50) was found to be 3 nM.

In the case of `O=C(c1ncco1)C1CCN(Cc2cccc(OC(F)(F)F)c2)CC1` [Example 37, Oxazol-2-yl-[1-(3-trifluoromethoxy-benzyl)-piperidin-4-yl]-methanone], the IC50 amounted to 25 nM.

The compound `Cn1c(CN2CCC(C(=O)c3ncco3)CC2)nc2ccccc21` [Example 49, [1-(1-Methyl-1H-benzoimidazol-2-ylmethyl)-piperidin-4-yl]-oxazol-2-yl-methanone] returned an IC50 of 37 nM.

On to `Cn1ccc2cc(CN3CCC(C(=O)c4ncco4)CC3)ccc21` [Example 39, [1-(1-Methyl-1H-indol-5-ylmethyl)-piperidin-4-yl]-oxazot-2-yl-methanone], for which the IC50 is 80 nM.

Compound `CCOc1cccc(CN2CCC(C(=O)c3ncco3)CC2)c1` [Example 29, [1-(3-Ethoxy-benzyl)-piperidin-4-yl]-oxazol-2-yl-methanone] gave a concentration for half-maximal inhibition (IC50) of 170 nM.

`COc1ccc2cc(CN3CCC(C(=O)c4ncco4)CC3)c(Cl)nc2c1` [Example 68, [1-(2-Chloro-7-methoxy-quinolin-3-ylmethyl)-piperidin-4-yl]-oxazol-2-yl-methanone]: the midpoint of inhibition, the IC50, lay at 294 nM.

In turn, `O=C(c1ncco1)C1CCN(Cc2cc3ccc(Cl)cc3nc2Cl)CC1` [Example 70, [1-(2,7-Dichloro-quinolin-3-ylmethyl)-piperidin-4-yl]-oxazol-2-yl-methanone] yielded an IC50 of 500 nM.

The compound `O=C(c1ncco1)C1CCN(Cc2ccc(Br)cc2)CC1` [Example 51, [1-(4-Bromo-benzyl)-piperidin-4-yl]-oxazol-2-yl-methanone] registered an IC50 of 12 nM.

The compound `COc1ccc2cc(CN3CCC(C(=O)c4ncco4)CC3)ccc2c1` [Example 46, [1-(6-Methoxy-naphthalen-2-ylmethyl)-piperidin-4-yl]-oxazol-2-yl-methanone] came in with an IC50 of 260 nM.

For `O=C(c1ncco1)C1CCN(Cc2ccccc2Br)CC1` [Example 53, [1-(2-Bromo-benzyl)-piperidin-4-yl]-oxazol-2-yl-methanone], the IC50 stood at 85 nM.

With `O=C(c1ncco1)C1CCN(Cc2ccc3cc(Cl)ccc3n2)CC1` [Example 77, [1-(6-Chloro-quinolin-2-ylmethyl)-piperidin-4-yl]-oxazol-2-yl-methanone], inhibition was half-maximal at 7 nM (IC50).

Take `O=C(c1ncco1)C1CCN(Cc2cccc(OC3CCCCC3)c2)CC1` [Example 22, [1-(3-Cyclohexyloxy-benzyl)-piperidin-4-yl]-oxazol-2-yl-methanone]: the IC50 stood at 12 nM.

Consider `O=C(c1ncco1)C1CCN(S(=O)(=O)c2ccc(Cl)cc2)CC1` [Example 4, [1-(4-Chloro-benzenesulfonyl)-piperidin-4-yl]-oxazol-2-yl-methanone], for which the IC50 was 1200 nM.

`O=C(c1ncco1)C1CCN(Cc2ccc3ccccc3c2O)CC1` [Example 47, [1-(1-Hydroxy-naphthalen-2-ylmethyl)-piperidin-4-yl]-oxazol-2-yl-methanone] came in with a concentration for half-maximal inhibition (IC50) of 4 nM.

For `O=C(c1ncco1)C1CCN(Cc2ccccc2Cl)CC1` [Example 33, [1-(2-Chloro-benzyl)-piperidin-4-yl]-oxazol-2-yl-methanone], the IC50 worked out at 156 nM.
